Test [1] deals with T1, AcerOr11.
T1 construct: gene Or11; AcerOr11 co-expressed with AcerOrco in Xenopus laevis oocytes; with AcerOrco
Description: two-electrode voltage clamp in Xenopus oocytes (agonist, dose-response and I-V curves). Format: cell-based, Apis cerana.

Test [2] concerns T1, AcerOr11. Description: two-electrode voltage clamp in Xenopus oocytes (inverse currents; also inhibits 9-ODA-evoked currents). Type of test: cell-based, Apis cerana. In general terms: In two-electrode clamp one electrode senses voltage and the other passes current.

SMILES strings stand for the structures. pEC50: −log10 of the molar value.

The term pEC50 denotes −log10 of the EC50, conventionally taken in molar units. A higher pEC50 goes with a small EC50. For `CC(=O)CCCCC/C=C/C(=O)O` [9-ODA, 9-oxo-(E)-2-decenoic acid], in test [1], the pEC50 is 9.46.

Consider `COC(=O)c1ccc(O)cc1` [HOB, methyl p-hydroxybenzoate], for which the pEC50 in test [2] is 6.82.

(Values after article PMC11045764, “The dual coding of a single sex pheromone receptor in Asian honeybee Apis cerana” (Communications Biology, 2024).)
